According to patent US20090291964A1, “Potentiators of Antibacterial Activity” (priority 2003, published 2009):

Columns and labels:
Assay type in all cases: cell-based
[1] = test system: S. aureus clinical isolates; assay: MIC90 studies: fluoroquinolone susceptibility of clinical isolate panel with EPI; conditions: EPI at 50 μg/ml
Method: (§1) Susceptibility studies with large panels of resistant clinical isolates were performed at Focus Technologies, Herndon, Va. according to NCCLS protocols (National Committee for Clinical Laboratory Standards, supra).
(§2) To be useful in combination therapy, an EPI needs to substantially reduce the MIC of an antibiotic to within the range of clinical susceptibility. Because many different resistance mechanisms are often present in clinical isolates, including the likelihood of multiple target-based mutations in addition to efflux mutations, the barrier to antibiotic efficacy is much greater. […] Oxacillin and vancomycin MICs were also determined to identify which isolates were methicillin-resistant (S. aureus) and vancomycin-resistant (E. faecalis).

[2] = test system: E. faecalis clinical isolates; assay: as above; conditions: EPI at 50 μg/ml
Method: as §1, §2

S. aureus ATCC 29213 = assay: Ethidium bromide efflux fluorescence assay; conditions: EPIs at 4 times MEC for EtBr, A-106 at 100 μg/ml; versus control cells without EPI
Method: S. aureus cells were loaded with EtBr as described in Example 1. EPIs were used at 4XMEC (minimal effective concentration) (25 μg/ml reserpine; 100 μg/ml VX-710 (compound A-106 in Table A-2); 6.25 μg/ml VX-853 (compound C-9 in Table C-I), and no EPI control—as labeled). Fluorescence was continuously monitored over time at room temperature and results are an average of at least 3 replicates.
Ethidium bromide (EtBr) efflux assays with S. aureus were performed using the method described by Markham et al. (Markham, et al., “Multiple Novel Inhibitors of the NorA Multidrug Transporter of Staphylococcus aureus”, Antimicrob. Agents Chemother. 43:2404-2408 (1999)). […] Ethidium bromide efflux was determined by continuously monitoring fluorescence at an excitation wavelength of 530 nm and an emission wavelength of 600 nm in a black 96-well polystyrene plate with clear, flat bottom (Costar #3904, Cambridge, Mass.) using a SpectraMax Gemini spectrofluorimeter (Molecular Devices, Sunnydale, Calif.). […]
Markham et al., “Multiple Novel Inhibitors of the NorA Multidrug Transporter of Staphylococcus aureus”, Antimicrob. […] Since ethidium only fluoresces when it is bound to nucleic acid inside of cells, a decrease in fluorescence over time is due to active efflux. […]

[3] = test system: wild type gram negative organisms (E. coli, P. aeruginosa, and H. influenzae); assay: MIC of EtBr in presence and absence of EPI; conditions: all wild type gram-negative organisms, compared with gram-positive
Excerpt: EtBr is a general substrate for many different efflux pumps in bacteria. Markham et al., “Multiple Novel Inhibitors of the NorA Multidrug Transporter of Staphylococcus aureus”, Antimicrob. Agents Chemother. 43:2404-2408 (1999). Since EtBr is a non-specific DNA intercalator, the only known mechanism of resistance to EtBr is via efflux. Markham et al., “Multiple Novel Inhibitors of the NorA Multidrug Transporter of Staphylococcus aureus”, Antimicrob. Agents Chemother. 43:2404-2408 (1999).

[4] = E. faecalis clinical isolate 10
[5] = E. faecalis clinical isolate 11
[6] = E. faecalis clinical isolate 12
[7] = E. faecalis clinical isolate 13
[8] = E. faecalis clinical isolate 14
[9] = E. faecalis clinical isolate 15
[10] = E. faecalis clinical isolate 16
[11] = E. faecalis clinical isolate 17
[12] = E. faecalis clinical isolate 18
[13] = E. faecalis clinical isolate 19
[14] = E. faecalis clinical isolate 20
[15] = E. faecalis clinical isolate 21
[16] = E. faecalis clinical isolate 22
[17] = E. faecalis clinical isolate 23
[18] = E. faecalis clinical isolate 24
[19] = E. faecalis clinical isolate 25
[20] = E. faecalis clinical isolate 26

## COc1cc(C(=O)C(=O)N2CCCC[C@H]2C(=O)OC(CCCc2cccnc2)CCCc2cccnc2)cc(OC)c1OC [A-106]
[1]; S. aureus isolates # 3, 6, 9
  change of norfloxacin MIC in combination with EPI: reductions in MICs
[1]; S. aureus isolates # 3 and 5
  change of ciprofloxacin MIC in combination with EPI: reductions in MICs
[1]; S. aureus isolates, Table 5A
  isolates with >2-fold decrease in the MIC for ciprofloxacin: 10/15
  isolates with >2-fold decrease in the MIC for norfloxacin: 13/15
[1]; highly fluoroquinolone-resistant strains in the panel
  restoration of clinical susceptibility: insufficient to restore clinical susceptibility
[1]; S. aureus clinical isolate 1
  Ciprofloxacin MIC with EPI: 0.5 µg/mL
  Norfloxacin MIC with EPI: 2 µg/mL
[1]; S. aureus clinical isolate 2
  Ciprofloxacin MIC with EPI: 0.12 µg/mL
  Norfloxacin MIC with EPI: ≦0.25 μg/ml
[1]; S. aureus clinical isolate 3
  Ciprofloxacin MIC with EPI: ≦0.06 μg/ml
  Norfloxacin MIC with EPI: ≦0.25 μg/ml
[1]; S. aureus clinical isolate 4
  Ciprofloxacin MIC with EPI: 64 µg/mL
  Norfloxacin MIC with EPI: 128 µg/mL
[1]; S. aureus clinical isolate 5
  Ciprofloxacin MIC with EPI: ≦0.06 μg/ml
  Norfloxacin MIC with EPI: ≦0.25 μg/ml
[1]; S. aureus clinical isolate 6
  Ciprofloxacin MIC with EPI: 8 µg/mL
  Norfloxacin MIC with EPI: 8 µg/mL
[1]; S. aureus clinical isolate 7
  Ciprofloxacin MIC with EPI: ≦0.06 μg/ml
  Norfloxacin MIC with EPI: ≦0.25 μg/ml
[1]; S. aureus clinical isolate 8
  Ciprofloxacin MIC with EPI: 0.25 µg/mL
  Norfloxacin MIC with EPI: 1 µg/mL
[1]; S. aureus clinical isolate 9
  Ciprofloxacin MIC with EPI: ≦0.06 μg/ml
  Norfloxacin MIC with EPI: ≦0.25 μg/ml
[1]; S. aureus clinical isolate 10
  Ciprofloxacin MIC with EPI: 8 µg/mL
  Norfloxacin MIC with EPI: 16 µg/mL
[1]; S. aureus clinical isolate 11
  Ciprofloxacin MIC with EPI: 8 µg/mL
  Norfloxacin MIC with EPI: 32 µg/mL
[1]; S. aureus clinical isolate 12
  Ciprofloxacin MIC with EPI: ≦0.06 μg/ml
  Norfloxacin MIC with EPI: ≦0.25 μg/ml
[1]; S. aureus clinical isolate 13
  Ciprofloxacin MIC with EPI: 32 µg/mL
  Norfloxacin MIC with EPI: 64 µg/mL
[1]; S. aureus clinical isolate 14
  Ciprofloxacin MIC with EPI: 32 µg/mL
  Norfloxacin MIC with EPI: 64 µg/mL
[1]; S. aureus clinical isolate 15
  Ciprofloxacin MIC with EPI: 32 µg/mL
  Norfloxacin MIC with EPI: 64 µg/mL
[2]; E. faecalis clinical isolate 1
  Ciprofloxacin MIC with EPI: 0.5 µg/mL
  Norfloxacin MIC with EPI: 2 µg/mL
[2]; E. faecalis clinical isolate 2
  Ciprofloxacin MIC with EPI: 0.5 µg/mL
  Norfloxacin MIC with EPI: 1 µg/mL
[2]; E. faecalis clinical isolate 3
  Ciprofloxacin MIC with EPI: 32 µg/mL
  Norfloxacin MIC with EPI: 64 µg/mL
[2]; E. faecalis clinical isolate 4
  Ciprofloxacin MIC with EPI: 32 µg/mL
  Norfloxacin MIC with EPI: 64 µg/mL
[2]; E. faecalis clinical isolate 5
  Ciprofloxacin MIC with EPI: 32 µg/mL
  Norfloxacin MIC with EPI: 64 µg/mL
[2]; E. faecalis clinical isolate 6
  Ciprofloxacin MIC with EPI: 0.5 µg/mL
  Norfloxacin MIC with EPI: 1 µg/mL
[2]; E. faecalis clinical isolate 7
  Ciprofloxacin MIC with EPI: 0.5 µg/mL
  Norfloxacin MIC with EPI: 1 µg/mL
[2]; E. faecalis clinical isolate 8
  Ciprofloxacin MIC with EPI: 32 µg/mL
  Norfloxacin MIC with EPI: 64 µg/mL
[2]; E. faecalis clinical isolate 9
  Ciprofloxacin MIC with EPI: 1 µg/mL
  Norfloxacin MIC with EPI: 2 µg/mL
[2]; [4]
  Ciprofloxacin MIC with EPI: 16 µg/mL
  Norfloxacin MIC with EPI: 32 µg/mL
[2]; [5]
  Ciprofloxacin MIC with EPI: 16 µg/mL
  Norfloxacin MIC with EPI: 64 µg/mL
[2]; [6]
  Ciprofloxacin MIC with EPI: 0.5 µg/mL
  Norfloxacin MIC with EPI: 1 µg/mL
[2]; [7]
  Ciprofloxacin MIC with EPI: 0.5 µg/mL
  Norfloxacin MIC with EPI: 1 µg/mL
[2]; [8]
  Ciprofloxacin MIC with EPI: 0.25 µg/mL
  Norfloxacin MIC with EPI: 0.5 µg/mL
[2]; [9]
  Ciprofloxacin MIC with EPI: 1 µg/mL
  Norfloxacin MIC with EPI: 2 µg/mL
[2]; [10]
  Ciprofloxacin MIC with EPI: 1 µg/mL
  Norfloxacin MIC with EPI: 2 µg/mL
[2]; [11]
  Ciprofloxacin MIC with EPI: 0.5 µg/mL
  Norfloxacin MIC with EPI: 2 µg/mL
[2]; [12]
  Ciprofloxacin MIC with EPI: 32 µg/mL
  Norfloxacin MIC with EPI: 64 µg/mL
[2]; [13]
  Ciprofloxacin MIC with EPI: 1 µg/mL
  Norfloxacin MIC with EPI: 2 µg/mL
[2]; [14]
  Ciprofloxacin MIC with EPI: 0.5 µg/mL
  Norfloxacin MIC with EPI: 2 µg/mL
[2]; [15]
  Ciprofloxacin MIC with EPI: 0.5 µg/mL
  Norfloxacin MIC with EPI: 1 µg/mL
[2]; [16]
  Ciprofloxacin MIC with EPI: 32 µg/mL
  Norfloxacin MIC with EPI: 64 µg/mL
[2]; [17]
  Ciprofloxacin MIC with EPI: 32 µg/mL
  Norfloxacin MIC with EPI: 32 µg/mL
[2]; [18]
  Ciprofloxacin MIC with EPI: 16 µg/mL
  Norfloxacin MIC with EPI: 32 µg/mL
[2]; [19]
  Ciprofloxacin MIC with EPI: 32 µg/mL
  Norfloxacin MIC with EPI: 64 µg/mL
[2]; [20]
  Ciprofloxacin MIC with EPI: 32 µg/mL
  Norfloxacin MIC with EPI: 64 µg/mL
[2]; E. faecalis isolates, Table 5B
  trend in the reduction of MICs for ciprofloxacin and norfloxacin: two-fold trend in the reduction of MICs
S. aureus ATCC 29213
  loss of EtBr fluorescence over time (FIG. 1): much more gradual loss of fluorescence
[3]
  activity against efflux of EtBr: much less active
